Source: US11702426B2, “Macrocyclic deaza-purinones for the treatment of viral infections” (JANSSEN SCIENCES IRELAND UNLIMITED COMPANY, priority 2013, dated 2023)

Assays:
human TLR7 = target: T1, human TLR7 (Homo sapiens, UniProt Q9NYK1); assay: HEK293 TLR7-NFκB-luc cellular reporter assay; format: cell-based; settings: lowest effective concentration; HEK293 transiently transfected with TLR7 and NFκB-luc; 6 hours incubation
T1 construct: expressed in transfected cells; host or cells: HEK293
T1 sequence (Q9NYK1 27-1049): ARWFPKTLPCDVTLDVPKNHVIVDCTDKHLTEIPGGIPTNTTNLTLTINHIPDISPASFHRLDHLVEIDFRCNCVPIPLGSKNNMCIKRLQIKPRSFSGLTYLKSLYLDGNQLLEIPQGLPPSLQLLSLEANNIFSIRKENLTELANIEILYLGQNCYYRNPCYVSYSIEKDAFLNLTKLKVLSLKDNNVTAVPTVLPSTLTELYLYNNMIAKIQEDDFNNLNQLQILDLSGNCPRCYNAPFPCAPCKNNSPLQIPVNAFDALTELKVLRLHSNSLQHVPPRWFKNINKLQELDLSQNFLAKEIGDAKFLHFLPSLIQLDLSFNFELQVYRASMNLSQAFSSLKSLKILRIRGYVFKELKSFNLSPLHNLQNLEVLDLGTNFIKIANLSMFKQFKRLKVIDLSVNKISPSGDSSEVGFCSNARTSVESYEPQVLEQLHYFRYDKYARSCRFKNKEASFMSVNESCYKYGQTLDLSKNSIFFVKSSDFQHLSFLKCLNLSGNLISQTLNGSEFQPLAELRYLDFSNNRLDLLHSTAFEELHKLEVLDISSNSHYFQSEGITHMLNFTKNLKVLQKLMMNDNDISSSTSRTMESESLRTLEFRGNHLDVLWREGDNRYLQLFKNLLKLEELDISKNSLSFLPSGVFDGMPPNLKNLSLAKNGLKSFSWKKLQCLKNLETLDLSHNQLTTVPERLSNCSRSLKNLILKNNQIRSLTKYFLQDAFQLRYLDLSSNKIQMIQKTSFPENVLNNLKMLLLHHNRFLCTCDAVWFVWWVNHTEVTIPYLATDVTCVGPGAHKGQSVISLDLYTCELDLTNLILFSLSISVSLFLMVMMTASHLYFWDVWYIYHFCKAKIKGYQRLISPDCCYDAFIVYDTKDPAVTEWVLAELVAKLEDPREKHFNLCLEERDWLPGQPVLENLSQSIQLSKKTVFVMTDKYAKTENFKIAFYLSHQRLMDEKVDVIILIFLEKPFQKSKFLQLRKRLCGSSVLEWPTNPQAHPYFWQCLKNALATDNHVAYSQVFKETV
Method: The ability of compounds to activate human TLR7 and TLR8 was assessed in a cellular reporter assay using HEK293 cells transiently transfected with a TLR7 or TLR8 expression vector and NFκB-luc reporter construct. Briefly, HEK293 cells were grown in culture medium (DMEM supplemented with 10% FCS and 2 mM Glutamine). For transfection of cells in 15 cm dishes, cells were detached with Trypsin-EDTA, transfected with a mix of CMV-TLR7 or TLR8 plasmid (1,700 ng), NFκB-luc plasmid (850 ng) and a transfection reagent and incubated 48 hours at 37° C. in a humidified 5% CO2 atmosphere. Transfected cells were then washed in PBS, detached with Trypsin-EDTA, and resuspended in medium to a density of 1.25×10^5 cells/mL. Forty microliters of cells were then dispensed into each well in 384-well plates, where 200 nL of compound in 100% DMSO was already present. Following 6 hours incubation at 37° C., 5% CO2, the luciferase activity was determined by adding 15 μl of Steady Lite Plus substrate (Perkin Elmer) to each well and readout performed on a ViewLux ultraHTS microplate imager (Perkin Elmer). Dose response curves were generated from measurements performed in quadruplicates. Lowest effective concentrations (LEC) values, defined as the concentration that induces an effect which is at least two fold above the standard deviation of the assay, were determined for each compound.

[1] = test system: interferon production in human PBMC; assay: Interferon production in human PBMC, read out on HEK-ISRE-luc reporter cells; format: cell-based; settings: lowest effective concentration, PBMC incubated overnight with compound, supernatant transferred to HEK-ISRE-luc cells; for minimal effective concentration: Homo sapiens, PBMC, 24 h, read-out: PBMC HEK-ISRE-luc (LEC; μM); for PBMC HEK-ISRE-luc (LEC; μM): 24 hours
Method: Activation of human TLR7 results in robust production of interferon by plasmacytoid dendritic cells present in human blood. The potential of compounds to induce interferon was evaluated by determination of interferon in the conditioned media from peripheral blood mononuclear cells (PBMC). The presence of interferon in the samples was determined, using an interferon reporter cell line stably expressing an interferon-stimulated responsive elements (ISRE)-luc reporter construct. The ISRE element with sequence TAGTTTCACTTTCCC (SEQ ID NO: 1) is highly responsive to the STAT1-STAT2-IRF9 transcription factor, which becomes activated upon binding of IFN-I to the IFN receptor. Briefly, PBMCs were prepared from buffy coats of at least two donors using a standard Ficoll centrifugation protocol. Isolated PBMCs were resuspended in RPMI medium supplemented with 10% human AB serum and 2×10^5 cells/well were dispensed into 384-well plates containing compounds (70 μL total volume). After overnight incubation of the PBMCs with the compounds, 10 μL of supernatant was transferred to 384-well plates containing 5×10^3 HEK-ISRE-luc cells/well in 30 μL (plated the day before). Following 24 hours of incubation, activation of the ISRE elements was measured by assaying luciferase activity using 40 μL/well Steady Lite Plus substrate (Perkin Elmer) and measured with ViewLux ultraHTS microplate imager (Perkin Elmer). The stimulating activity of each compound on the HEK-ISRE-luc cells was reported as LEC. The LEC in turn indicates the degree of ISRE activation on transfer of a defined amount of PBMC culture medium. Recombinant interferon alfa-2a (Roferon-A) was used as a standard control compound.

Nc1nc2cc3c1nc(O)n3Cc1cccc(c1)OC/C=C/CO2 [Compound 1]
HEK293 TLR7-NFκB-luc (LEC; μM) (human TLR7): 2.88 µM
minimal effective concentration [1]: 0.3 µM

Nc1nc2cc3c1nc(O)n3Cc1cccc(c1)OCCCCO2 [Compound 2]
HEK293 TLR7-NFκB-luc (LEC; μM) (human TLR7): 4.47 µM
minimal effective concentration [1]: 0.93 µM

Nc1nc2cc3c1nc(O)n3Cc1cccc(c1)C/C=C/CCO2 [Compound 3]
HEK293 TLR7-NFκB-luc (LEC; μM) (human TLR7): 0.27 µM
minimal effective concentration [1]: 0.033 µM

Nc1nc2cc3c1nc(O)n3Cc1ncccc1OC/C=C/CCO2 [Compound 5]
HEK293 TLR7-NFκB-luc (LEC; μM) (human TLR7): 2.14 µM
minimal effective concentration [1]: 0.082 µM

Nc1nc2cc3c1nc(O)n3Cc1ncccc1OCCCCCO2 [Compound 6]
HEK293 TLR7-NFκB-luc (LEC; μM) (human TLR7): 1 µM
minimal effective concentration [1]: 0.16 µM

COc1ccc2cc1OC/C=C/COc1cc3c(nc(O)n3C2)c(N)n1 [Compound 7]
HEK293 TLR7-NFκB-luc (LEC; μM) (human TLR7): 3.88 µM
minimal effective concentration [1]: 0.29 µM

COc1ccc2cc1OCCCCOc1cc3c(nc(O)n3C2)c(N)n1 [Compound 8]
HEK293 TLR7-NFκB-luc (LEC; μM) (human TLR7): 7.1 µM
minimal effective concentration [1]: 0.58 µM

Nc1nc2cc3c1nc(O)n3Cc1cccc(c1)CCCCCN2 [Compound 9]
HEK293 TLR7-NFκB-luc (LEC; μM) (human TLR7): 11.09 µM
minimal effective concentration [1]: 10.9 µM

Nc1nc2cc3c1nc(O)n3Cc1cccc(c1)OC/C=C/CCO2 [Compound 10]
HEK293 TLR7-NFκB-luc (LEC; μM) (human TLR7): 0.78 µM
minimal effective concentration [1]: 0.25 µM

Nc1nc2cc3c1nc(O)n3Cc1cccc(c1)OC/C=C/CCCO2 [Compound 11]
HEK293 TLR7-NFκB-luc (LEC; μM) (human TLR7): 1.25 µM
minimal effective concentration [1]: 0.45 µM

COc1cc2cc(c1)OC/C=C/COc1cc3c(nc(O)n3C2)c(N)n1 [Compound 12]
HEK293 TLR7-NFκB-luc (LEC; μM) (human TLR7): 1.08 µM
minimal effective concentration [1]: 0.3 µM

COc1cc2cc(c1)OCCCCOc1cc3c(nc(O)n3C2)c(N)n1 [Compound 13]
HEK293 TLR7-NFκB-luc (LEC; μM) (human TLR7): 1.71 µM
minimal effective concentration [1]: 0.15 µM

Nc1nc2cc3c1nc(O)n3Cc1cccc(c1)OCCCCCO2 [Compound 14]
HEK293 TLR7-NFκB-luc (LEC; μM) (human TLR7): 7.01 µM
minimal effective concentration [1]: 2.4 µM

COc1cc2cc(c1)OC/C=C/CCOc1cc3c(nc(O)n3C2)c(N)n1 [Compound 15]
HEK293 TLR7-NFκB-luc (LEC; μM) (human TLR7): 0.18 µM
minimal effective concentration [1]: 0.04 µM

Nc1nc2cc3c1nc(O)n3Cc1ccc(F)c(c1)OC/C=C/CO2 [Compound 16]
HEK293 TLR7-NFκB-luc (LEC; μM) (human TLR7): 2.02 µM
minimal effective concentration [1]: 0.47 µM

Cl.Nc1nc2cc3c1nc(O)n3Cc1ccc(F)c(c1)OC/C=C/CO2 [Compound 17]
HEK293 TLR7-NFκB-luc (LEC; μM) (human TLR7): 1.88 µM
PBMC HEK-ISRE-luc (LEC; μM) [1]: 0.39 µM

Nc1nc2cc3c1nc(O)n3Cc1cccc(c1)NC/C=C/CO2 [Compound 18]
HEK293 TLR7-NFκB-luc (LEC; μM) (human TLR7): 8.02 µM
minimal effective concentration [1]: 1.11 µM

Nc1nc2cc3c1nc(O)n3Cc1ccc(F)c(c1)OCCCCCO2 [Compound 19]
HEK293 TLR7-NFκB-luc (LEC; μM) (human TLR7): 14.96 µM
minimal effective concentration [1]: 2.22 µM

Cl.Nc1nc2cc3c1nc(O)n3Cc1ccc(F)c(c1)OCCCCCO2 [Compound 20]
HEK293 TLR7-NFκB-luc (LEC; μM) (human TLR7): 4.99 µM
PBMC HEK-ISRE-luc (LEC; μM) [1]: 1.61 µM

Nc1nc2cc3c1nc(O)n3Cc1ccc(F)c(c1)OC/C=C/CCO2 [Compound 21]
HEK293 TLR7-NFκB-luc (LEC; μM) (human TLR7): 0.9 µM
minimal effective concentration [1]: 0.25 µM

Cl.Nc1nc2cc3c1nc(O)n3Cc1ccc(F)c(c1)OC/C=C/CCO2 [Compound 22]
HEK293 TLR7-NFκB-luc (LEC; μM) (human TLR7): 1.83 µM
PBMC HEK-ISRE-luc (LEC; μM) [1]: 0.39 µM

Nc1nc2cc3c1nc(O)n3Cc1cccc(c1)NCCCCO2 [Compound 23]
HEK293 TLR7-NFκB-luc (LEC; μM) (human TLR7): 16.74 µM
minimal effective concentration [1]: 8.98 µM

Nc1nc2cc3c1nc(O)n3Cc1ccc(F)c(c1)OCCCCO2 [Compound 24]
minimal effective concentration [1]: 2.14 µM

Nc1nc2cc3c1nc(O)n3Cc1cccc(c1)OCC/C=C/CO2 [Compound 25]
HEK293 TLR7-NFκB-luc (LEC; μM) (human TLR7): 1.92 µM
minimal effective concentration [1]: 0.53 µM

Nc1nc2cc3c1nc(O)n3Cc1cccc(c1)NC/C=C/CCO2 [Compound 26]
HEK293 TLR7-NFκB-luc (LEC; μM) (human TLR7): 1.88 µM
minimal effective concentration [1]: 0.37 µM

Nc1nc2cc3c1nc(O)n3Cc1cc(F)cc(c1)OC/C=C/CCO2 [Compound 27]
HEK293 TLR7-NFκB-luc (LEC; μM) (human TLR7): 1.35 µM
minimal effective concentration [1]: 0.14 µM

Cl.Nc1nc2cc3c1nc(O)n3Cc1cc(F)cc(c1)OC/C=C/CCO2 [Compound 28]
HEK293 TLR7-NFκB-luc (LEC; μM) (human TLR7): 0.91 µM
PBMC HEK-ISRE-luc (LEC; μM) [1]: 0.15 µM

Nc1nc2cc3c1nc(O)n3Cc1cccc(c1)NC/C=C\CCO2 [Compound 29]
HEK293 TLR7-NFκB-luc (LEC; μM) (human TLR7): 1.14 µM
minimal effective concentration [1]: 0.48 µM

Nc1nc2cc3c1nc(O)n3Cc1cc(F)cc(c1)OC/C=C/CO2 [Compound 30]
HEK293 TLR7-NFκB-luc (LEC; μM) (human TLR7): 0.64 µM
minimal effective concentration [1]: 0.15 µM

Cl.Nc1nc2cc3c1nc(O)n3Cc1cc(F)cc(c1)OC/C=C/CO2 [Compound 31]
HEK293 TLR7-NFκB-luc (LEC; μM) (human TLR7): 1.19 µM
PBMC HEK-ISRE-luc (LEC; μM) [1]: 0.15 µM

Nc1nc2cc3c1nc(O)n3Cc1cc(F)cc(c1)OCCCCCO2 [Compound 32]
HEK293 TLR7-NFκB-luc (LEC; μM) (human TLR7): 2.92 µM
minimal effective concentration [1]: 0.49 µM

Nc1nc2cc3c1nc(O)n3Cc1cc(F)cc(c1)OCCCCO2 [Compound 33]
HEK293 TLR7-NFκB-luc (LEC; μM) (human TLR7): 2.77 µM
minimal effective concentration [1]: 0.45 µM

Nc1nc2cc3c1nc(O)n3Cc1cccc(c1)NCCCCCO2 [Compound 34]
HEK293 TLR7-NFκB-luc (LEC; μM) (human TLR7): 8.1 µM
minimal effective concentration [1]: 2.11 µM

Nc1nc2cc3c1nc(O)n3CCc1cccc(c1)OC/C=C/CO2 [Compound 35]
HEK293 TLR7-NFκB-luc (LEC; μM) (human TLR7): 17.43 µM
minimal effective concentration [1]: 1.98 µM
